Reference: US10253002B2, “Compounds and methods of treating infections” (Neoculi Pty Ltd., priority 2013, dated 2019)
≈ marks a conversion by molar mass, not a printed value. Where “and” joins values, the source holds several entries; their conditions need not be identical. Equal values may be shown once.

Tests used:
Test in all cases: Broth microdilution MIC, Example 7 (NCL812 and analogues)
[1] = test system: MRSA; assay type: cell-based, Staphylococcus aureus; conditions: for activity against MRSA among analogues: MIC testing, two MRSA strains
In short: (§1)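 Duplicates per isolate, repeated a third time if >one two-fold dilution apart. MIC50, MIC20 and range calculated per bacterial group.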

[2] = test system: VRE; assay type: cell-based, Enterococcus spp.; conditions: for activity against VRE among analogues: MIC testing, two VRE strains
In short: as §1

[3] = test system: Escherichia coli; assay type: cell-based; conditions: 24 hours
[4] = test system: Pseudomonas aeruginosa; assay type: cell-based; conditions: 24 hours
[5] = MRSA 1, 24 hours, duplicate lines per compound
[6] = MRSA 2, 24 hours, duplicate lines per compound
[7] = VRE 1, 24 hours, duplicate lines per compound
[8] = VRE 2, 24 hours, duplicate lines per compound
[9] = E. coli, duplicate lines per compound
[10] = P. aeruginosa, duplicate lines per compound
[11] = isolate MRSA 1, 24 hours, 1st and 2nd replicate rows
[12] = isolate MRSA 2, 24 hours, 1st and 2nd replicate rows
[13] = isolate VRE 1, 24 hours, 1st and 2nd replicate rows
[14] = isolate VRE 2, 24 hours, 1st and 2nd replicate rows

MIC (μg/ml) at 24 hours, MRSA 1 [1, 5] [µg/mL] | MIC (μg/ml) at 24 hours, MRSA 2 [1, 6] [µg/mL] | MIC (μg/ml) at 24 hours, VRE 1 [2, 7] [µg/mL] | MIC (μg/ml) at 24 hours, VRE 2 [2, 8] [µg/mL] | MIC (μg/ml) at 24 hours, E. coli [3, 9] [µg/mL] | MIC (μg/ml) at 24 hours, P. aeruginosa [4, 10] [µg/mL] | MIC (μg/ml) at 24 hours, MRSA 1 ([1]; MRSA 1, 24 hours) [µg/mL] | MIC (μg/ml) at 24 hours, MRSA 2 ([1]; MRSA 2, 24 hours) | MIC (μg/ml) at 24 hours, VRE 1 ([2]; VRE 1, 24 hours) [µg/mL] | MIC (μg/ml) at 24 hours, VRE 2 ([2]; VRE 2, 24 hours) [µg/mL] | MIC (μg/ml) at 24 hours, E. coli ([3]; E. coli) [µg/mL] | MIC (μg/ml) at 24 hours, P. aeruginosa ([4]; P. aeruginosa) [µg/mL] | Compound | activity against VRE among analogues [2] | further results
64 | 128 | 64 | >128 | >128 | >128 |  |  |  |  |  |  | Cl.N=C(N/N=C/c1ccc2ccccc2c1)N/N=C/c1ccc2ccccc2c1 [NCL093] | greatest activity | activity against MRSA among analogues [1]: greatest activity
64 | 64 | 64 | >128 | >128 | >128 |  |  |  |  |  |  | Cl.N=C(NN=Cc1ccc(O)c(O)c1)NN=Cc1ccc(O)c(O)c1 [NCL111] | greatest activity | activity against MRSA among analogues [1]: greatest activity
32 | 32 | 64 | 128 | >128 | >128 |  |  |  |  |  |  | Cl.N=C(NN=Cc1cccc(O)c1O)NN=Cc1cccc(O)c1O [NCL101] | greatest activity | activity against MRSA among analogues [1]: greatest activity
>128 | >128 | >128 | >128 | >128 | >128 |  |  |  |  |  |  | Cl.N=C(NN=Cc1ccccc1[N+](=O)[O-])NN=Cc1ccccc1[N+](=O)[O-] [NCL102] |  | 
 |  |  |  |  |  | >128 | >128 µg/mL | >128 | >128 | >128 | >128 | C/C(=N\Nc1nc(N)nc(N/N=C(\C)c2ccc(Cl)cc2)n1)c1ccc(Cl)cc1 [NCL208] |  | 
 |  |  |  |  |  | >128 | >128 µg/mL and 128 µg/mL | 32 (≈ 65.3 µM) | 16 (≈ 32.6 µM) | >128 | >128 | Nc1nc(N/N=C/c2ccc(Br)cc2)nc(N/N=C/c2ccc(Br)cc2)n1 [NCL212] | greatest activity | VRE ([2]; bioassay ranking, VRE): 24 µg/mL

More lines, now with the values behind:

Compound | MIC (μg/ml) at 24 hours, MRSA 1 [1, 5] [µg/mL] | MIC (μg/ml) at 24 hours, MRSA 2 [1, 6] [µg/mL] | MIC (μg/ml) at 24 hours, VRE 1 [2, 7] [µg/mL] | MIC (μg/ml) at 24 hours, VRE 2 [2, 8] [µg/mL] | MIC (μg/ml) at 24 hours, E. coli [3, 9] [µg/mL] | MIC (μg/ml) at 24 hours, P. aeruginosa [4, 10] [µg/mL] | MIC (μg/ml) at 24 hours, MRSA 1 ([1]; MRSA 1, 24 hours) [µg/mL] | MIC (μg/ml) at 24 hours, MRSA 2 ([1]; MRSA 2, 24 hours) | MIC (μg/ml) at 24 hours, VRE 1 ([2]; VRE 1, 24 hours) [µg/mL] | MIC (μg/ml) at 24 hours, VRE 2 ([2]; VRE 2, 24 hours) [µg/mL] | MIC (μg/ml) at 24 hours, E. coli ([3]; E. coli) [µg/mL] | MIC (μg/ml) at 24 hours, P. aeruginosa ([4]; P. aeruginosa) [µg/mL] | activity against VRE among analogues [2] | further results
Cl.Cl.Cl.N=C(NN=C(CN)c1ccccc1)NN=C(CN)c1ccccc1 [NCL 165] | >128 | >128 | >128 | >128 | >128 | >128 |  |  |  |  |  |  |  | 
O=C(N/N=C/c1ccccc1F)N/N=C/c1ccccc1F [NCL005] |  |  |  |  |  |  |  |  |  |  |  |  |  | MIC (μg/ml) at 24 hours, MRSA 1 [1, 11]: >128 µg/mL; MIC (μg/ml) at 24 hours, MRSA 2 [1, 12]: >128 µg/mL; MIC (μg/ml) at 24 hours, VRE 1 [2, 13]: >128 µg/mL; MIC (μg/ml) at 24 hours, VRE 2 [2, 14]: >128 µg/mL; MIC (μg/ml) at 24 hours, E. coli ([3]; 1st and 2nd replicate rows): >128 µg/mL; MIC (μg/ml) at 24 hours, P. aeruginosa ([4]; 1st and 2nd replicate rows): >128 µg/mL
CCC(=NNC(=N)NN=C(CC)c1ccc(Cl)cc1)c1ccc(Cl)cc1.Cl [NCL 153] | 32 | 16 | 8 | 8 | >128 | >128 |  |  |  |  |  |  |  | 
CC(=NNC(=N)NN=C(C)c1ccccn1)c1ccccn1.Cl [NCL 172] |  |  |  |  |  |  | 128 | 64 µg/mL | >128 | >128 | >128 | >128 |  | 
Cl.N#Cc1ccc(/C=N/NC(=N)N)cc1 [NCL031] |  |  |  |  |  |  |  |  |  |  |  |  |  | MIC (μg/ml) at 24 hours, MRSA 1 [1, 11]: >128 µg/mL; MIC (μg/ml) at 24 hours, MRSA 2 [1, 12]: >128 µg/mL; MIC (μg/ml) at 24 hours, VRE 1 [2, 13]: >128 µg/mL; MIC (μg/ml) at 24 hours, VRE 2 [2, 14]: >128 µg/mL; MIC (μg/ml) at 24 hours, E. coli ([3]; 1st and 2nd replicate rows): >128 µg/mL; MIC (μg/ml) at 24 hours, P. aeruginosa ([4]; 1st and 2nd replicate rows): >128 µg/mL
O=C(N/N=C/c1ccccc1Cl)N/N=C/c1ccccc1Cl [NCL002] |  |  |  |  |  |  |  |  |  |  |  |  |  | MIC (μg/ml) at 24 hours, MRSA 1 [1, 11]: >128 µg/mL; MIC (μg/ml) at 24 hours, MRSA 2 [1, 12]: >128 µg/mL; MIC (μg/ml) at 24 hours, VRE 1 [2, 13]: >128 µg/mL; MIC (μg/ml) at 24 hours, VRE 2 [2, 14]: >128 µg/mL; MIC (μg/ml) at 24 hours, E. coli ([3]; 1st and 2nd replicate rows): >128 µg/mL; MIC (μg/ml) at 24 hours, P. aeruginosa ([4]; 1st and 2nd replicate rows): >128 µg/mL
Cl.N=C(NN=Cc1ccc(Cl)cc1O)NN=Cc1ccc(Cl)cc1O [NCL 174] |  |  |  |  |  |  | 32 | 32 µg/mL | 4 | 32 | >128 | >128 |  | 
